Here are results for 2 molecules from patent US20200087258A1, “INHIBITOR OF CITRATE TRANSPORTER AND THEIR USE IN THERAPY” (Eternygen GmbH, priority 2017, published 2020).

SMILES strings stand for the structures.

In one test the target is T1, GLUT1 (Homo sapiens, UniProt P11166).
T1 construct: Huh-7 cells which endogenously express GLUT1; endogenous in cells; host or cells: Huh-7
T1 sequence (P11166 1-492): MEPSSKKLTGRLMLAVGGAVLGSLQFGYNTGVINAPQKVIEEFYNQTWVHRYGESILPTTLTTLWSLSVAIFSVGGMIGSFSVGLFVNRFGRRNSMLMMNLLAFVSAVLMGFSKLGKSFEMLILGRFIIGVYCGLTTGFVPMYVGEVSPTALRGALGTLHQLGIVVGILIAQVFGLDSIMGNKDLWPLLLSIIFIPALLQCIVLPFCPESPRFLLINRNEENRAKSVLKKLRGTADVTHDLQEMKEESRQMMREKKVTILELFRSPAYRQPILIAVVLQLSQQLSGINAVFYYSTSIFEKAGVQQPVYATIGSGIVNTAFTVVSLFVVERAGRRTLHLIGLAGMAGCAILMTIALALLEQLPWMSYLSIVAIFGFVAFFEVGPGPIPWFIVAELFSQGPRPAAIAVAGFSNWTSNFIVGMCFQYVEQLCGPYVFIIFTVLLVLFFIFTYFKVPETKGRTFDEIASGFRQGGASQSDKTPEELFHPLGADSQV
Description: 3H-glucose uptake counter assay in Huh7 cells endogenously expressing GLUT1. Type of test: cell-based. As to conditions: endogenous GLUT1. As to the method:
(§1) The compound was obtained by screening of a library containing more than 50,000 lead-like compounds and fragments. The library was tested using a functional citrate uptake assay with HEK293 cells overexpressing recombinant human INDY. The following hit confirmation was conducted in the same assay system. To confirm the activity of selected compounds on the target INDY another cell assay was conducted. In this assay system citrate uptake was measured using HepG2 cells which endogenously express INDY. Furthermore selectivity of selected compounds was tested for two other transporters in different assay systems. The first transporter was the glutamate transporter GLT-1 tested in a glutamate uptake assays using HEK293 cells overexpressing recombinant human GLT-1. The second transporter was the glucose transporter GLUT1 tested in a glucose uptake assay using Huh-7 cells which endogenously express GLUT1. Compounds were considered to be selective with an at least 5-fold higher activity for INDY than for the other two transporters.
Cells were maintained in cell medium using cell culture grade flasks (CellSTACK Corning, 500 cm2 dishes or T175 depending on cell number). The selection antibiotic and G418 (800 μg/ml) was added during cultivation but not for seeding into assay plates. For splitting, cells were washed with PBS (w/o Ca2+, Mg2+, phenol red) and detached with Trypsin/EDTA. Throughout cultivation cells were kept sub-confluent. Detached cells (50,000 cells/well) were seeded in 96-well plates (white, clear bottom from Corning #655098) and incubated over night before usage in the assay. The following media were used. For HEK293 cells expressing INDY MEM (PAA)+10% FCS+1×P/S+2 mM L-Gln; for HEK293 cells expressing GLT-1 DMEM (Gibco)+10% FCS+400 µg/ml G418; for Huh7 cells DMEM (Gibco)+10% FCS+2 mM L-Gin (+1×P/S); for HepG2 cells MEM (PAA, Cat # E15-024)+10% FCS+2 mM L-Gin+1×NEAA+1 mM Na-Pyruvat […]
Glucose uptake in Huh7 cells was measured as a counter assay. […] After 20 min incubation at RT plates were measured using TopCount system, Perkin Elmer. […]

For another test, the target named is T2, GLT-1 (Homo sapiens, UniProt P43004).
T2 construct: host or cells: HEK293 (virus made in GP293 packaging cells)
T2 sequence (P43004 whole entry): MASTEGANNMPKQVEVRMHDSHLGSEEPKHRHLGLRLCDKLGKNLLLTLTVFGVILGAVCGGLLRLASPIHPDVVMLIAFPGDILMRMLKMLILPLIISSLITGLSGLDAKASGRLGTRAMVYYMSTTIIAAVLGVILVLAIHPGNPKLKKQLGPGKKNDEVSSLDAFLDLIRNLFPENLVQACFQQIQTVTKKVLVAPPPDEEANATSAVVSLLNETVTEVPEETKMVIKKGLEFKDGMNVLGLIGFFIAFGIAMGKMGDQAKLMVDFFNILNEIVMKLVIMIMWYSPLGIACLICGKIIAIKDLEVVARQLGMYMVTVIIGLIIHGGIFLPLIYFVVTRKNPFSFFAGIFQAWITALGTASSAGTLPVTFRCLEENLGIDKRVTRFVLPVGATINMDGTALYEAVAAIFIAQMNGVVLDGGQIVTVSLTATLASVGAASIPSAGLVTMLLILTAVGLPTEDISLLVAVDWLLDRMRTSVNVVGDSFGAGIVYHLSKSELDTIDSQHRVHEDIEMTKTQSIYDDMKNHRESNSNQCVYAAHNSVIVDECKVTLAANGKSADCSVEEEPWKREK
Description: 3H-glutamate uptake counter assay in HEK293 cells overexpressing human GLT-1. Type of test: cell-based. The procedure: as §1
Cells were maintained in cell medium using cell culture grade flasks (CellSTACK Corning, 500 cm2 dishes or T175 depending on cell number). The selection antibiotic and G418 (800 μg/ml) was added during cultivation but not for seeding into assay plates. For splitting, cells were washed with PBS (w/o Ca2+, Mg2+, phenol red) and detached with Trypsin/EDTA. Throughout cultivation cells were kept sub-confluent. Detached cells (50,000 cells/well) were seeded in 96-well plates (white, clear bottom from Corning #655098) and incubated over night before usage in the assay. The following media were used. For HEK293 cells expressing INDY MEM (PAA)+10% FCS+1×P/S+2 mM L-Gln; for HEK293 cells expressing GLT-1 DMEM (Gibco)+10% FCS+400 µg/ml G418; for Huh7 cells DMEM (Gibco)+10% FCS+2 mM L-Gin (+1×P/S); for HepG2 cells MEM (PAA, Cat # E15-024)+10% FCS+2 mM L-Gin+1×NEAA+1 mM Na-Pyruvat
The following assay buffers for the particular uptake reaction were used. Citrate uptake buffer: 120 mM NaCl, 5.4 mM KCl, 0.8 mM MgSO4, 5 mM glucose, 1.8 mM CaCl2, 25 mM Hepes, 25 mM MES, pH 6.5. Glutamate uptake buffer: HBSS, 1 mM CaCl2, 1 mM MgCl2, 20 mM Hepes pH 7.4. Glucose uptake buffer: 25 mM Hepes+25 mM MES pH 7.4, 120 mM NaCl, 5.4 mM KCl, 1.8 mM CaCl2, 0.8 mM MgSO4.
As a counter assay, Glutamate uptake by the GLT-1 transporter was used. The principle of the assay is to measure the uptake of ^3H labelled glutamate into HEK cells, which overexpress human GLT-1.
The generation of a GLT-1 cell line was performed as follows: human GLT11 isoform sv1 cDNA (Origene # RC223924) was cloned into vector pFB-Neo-CMV-hGLT1 using QIAfilter Plasmid Midi Kit (Qiagen). Virus was generated in GP293 packaging cells (transfection of plasmid with Lipofectamine 2000+OptiMEM). For transfection into HEK cells GP293, supernatant containing virus was passed through a 0.45 micron sterile filter and DEAE-dextran was added at […] final concentration. The solution was used to transfect HEK293 cells at 37° C., 8.5% CO2. After 24 h selection marker G418 at 400 μg/ml was added and cultivation medium performed in DMEM 10% FBS.
The assay was performed in a 96-well format using repeated washing steps, cell lysis and addition of scintillation fluid. Assay buffer was HBSS, 1 mM CaCl2, 1 mM MgCl2, […] pH 7.4. Cells were seeded into white clear-bottom 96-well plates (50,000/well) in the presence of Poly-D-Lysine and incubated at 37° C. for 16-24 hours. Subsequently the plates were washed once with assay buffer using automated washing/LS 405 Selectors, BioTek ending with a buffer volume of 40 μl. Then 5 μl of compound solution in assay buffer was added and incubated for 20 min at 37° C. in cell incubator, HERA cell Heraeus. Afterwards 10 μl of substrate 3H-Glu (3 nM) were added and incubated for another 20 min at 37° C. in cell incubator, HERAcell. Then the plates were washed once with 200 μl cold assay buffer and 150 μl scintillation fluid was added. […]

Test [1] concerns the target INDY (Homo sapiens, UniProt Q86YT5). In words: 14C-citrate uptake in HepG2 cells endogenously expressing INDY (NaCT). The format is cell-based. As to conditions: endogenous INDY. The procedure, abridged:
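HepG2 cells, which express INDY endogenously, were preincubated with compound for 5 min at 37 °C in pH 6.5 Na+ citrate uptake buffer. 14C-citrate ([…]) was then added for 90 min at 37 °C. After washing and NaOH lysis, uptake was measured by scintillation counting, with 5 mM citrate as positive control.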

Test [2] concerns Indy. As to conditions: at 0.1 mM; cited from earlier work.

INDY, sequence (Q86YT5 whole entry): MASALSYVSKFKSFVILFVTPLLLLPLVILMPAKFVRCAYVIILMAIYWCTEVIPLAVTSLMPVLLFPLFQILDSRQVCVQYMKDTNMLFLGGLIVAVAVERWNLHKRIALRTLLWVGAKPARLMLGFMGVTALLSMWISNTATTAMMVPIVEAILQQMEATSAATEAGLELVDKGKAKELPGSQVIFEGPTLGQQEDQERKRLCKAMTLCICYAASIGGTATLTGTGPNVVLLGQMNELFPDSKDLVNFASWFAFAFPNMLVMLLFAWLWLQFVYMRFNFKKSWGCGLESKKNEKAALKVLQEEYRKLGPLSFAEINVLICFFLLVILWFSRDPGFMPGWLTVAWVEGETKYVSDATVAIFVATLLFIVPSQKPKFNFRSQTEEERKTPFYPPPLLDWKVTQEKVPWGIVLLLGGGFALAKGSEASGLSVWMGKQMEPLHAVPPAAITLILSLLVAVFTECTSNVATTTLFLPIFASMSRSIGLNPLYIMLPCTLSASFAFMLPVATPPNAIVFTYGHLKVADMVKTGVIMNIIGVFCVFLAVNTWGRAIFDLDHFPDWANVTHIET

Consider `O=C(NCc1ccccc1F)C1CCN(S(=O)(=O)c2ccccc2)CC1` [Example 6, N-[(2-fluorophenyl)methyl]-1-(benzenesulfonyl) piperidine-4-carboxamide], for which the IC50 is more than 50 µM against GLUT1, more than 50 µM on GLT-1 and 5.7 µM against INDY [1].

Take `O=C(O)CC(O)(C(=O)O)C(O)C(=O)O` (stereo not shown) [hydroxycitrate]: in the test with Indy [2], the “inhibition of Indy” value is on record as 30-40%.
